Where only a bound is given, the exact number is not on record here.

The values below come from PMC8623395, “Virtual Screening and Molecular Dynamics Simulation Study of Influenza Polymerase PB2 Inhibitors” (Molecules, 2021).

One series relates to HK/68 (H3N2). Nature of the series: CPE inhibition assay in MDCK cells, H3N2. Type of series: cell-based. The settings on record: Influenza A virus, 72 h.
Series [1] concerns influenza A/Puerto Rico/8/1934 (H1N1). Put plainly: CPE inhibition assay in MDCK cells, H1N1. Type of series: cell-based. The settings on record: Influenza A virus, 72 h.
Another series in a line: in vitro. The following applies: dog.
For another series, the system named is H3N2 influenza virus. Further details: method as in PMID 24134208. The following applies: read-out: IC50 for the cytopathic effect (CPE) of H3N2 influenza virus; cited from earlier work.
A further series deals with A/WSN/33. Further details: method as in PMID 20178582. The following applies: cited from earlier work.
Series [2] has as its system influenza virus ribonucleoprotein (RNP). Set-up: method as in PMID 12755627. The settings on record: cited from earlier work.
In series [3] the test system is influenza virus polymerase PB2 subunit. Further details: method as in PMID 30102858. The following applies: cited from earlier work.

The term IC50 denotes the midpoint of a concentration-inhibition curve. As to `O=C(Nc1nc(-c2ccc(O)cc2)c(CCc2ccccc2)s1)c1cc(O)c(O)c(O)c1` [Str1614], the 50% inhibitory concentration (IC50) in the series on HK/68 (H3N2) came out at 19.6 ± 0.93 µM; in series [1], 26.3 ± 8.69 µM. This molecule registered a CC50 at 72 h in the series “in vitro” of more than 100 µM.
In the case of `C[n+]1cn(CCCCC(=O)O)c2nc(CCCCCC(=O)O)nc([O-])c21` [g], the IC50 with H3N2 influenza virus is 5.3 µM.
What is called EC50 is the concentration giving half of the maximal effect. `O=C(O)c1cc(-c2ccc(Br)cc2)nc2ccc(Cl)cc12` [CSV0C019002]: the half-maximal effective concentration (EC50) in the series with A/WSN/33 was 4.27 µM.
As to `O=C(CCCCC(=O)c1ccccc1C(=O)O)c1ccccc1` [Str6318], the concentration for half-maximal inhibition (IC50) was 11.2 ± 3.39 µM in the series on HK/68 (H3N2) and 28.6 ± 9.46 µM in series [1]. This molecule had a CC50 at 72 h in “in vitro” of more than 100 µM.
On to `O=C(O)[C@H]1C2CCC(CC2)[C@@H]1Nc1nc(-c2c[nH]c3ncc(F)cc23)ncc1F` [VX-787, reference compound], for which the IC50 with HK/68 (H3N2) was 0.09 ± 0.02 µM; in series [1], 0.004 ± 0.001 µM. Further, in “in vitro”, the CC50 was more than 100 µM.
As to `COc1c2oc3c(OC)ccc(C(=O)N[C@@H](Cc4ccccc4)C(=O)O)c3nc-2cc(N)c1=O` [Str7374], the IC50 stood at 55.4 ± 27 µM in the series on HK/68 (H3N2) and 31.9 ± 8.15 µM in series [1]. The same molecule had a CC50 at 72 h in “in vitro” of more than 100 µM.
Take `O=C(O)c1cccc([C@@H](c2ccc(O)c(C(=O)O)c2)C(Cl)(Cl)Cl)c1` [Str5776]: the IC50 in the series with HK/68 (H3N2) came out at 2.51 ± 0.12 µM; in series [1], 3.55 ± 1.23 µM. Also, the CC50 at 72 h in “in vitro” is more than 100 µM.
With `Nc1nc2c(c(=O)[nH]1)[n+](Cc1ccccc1)cn2CCCCO` [RO0794238], the half-maximal inhibitory concentration (IC50) in series [2] is 45 µM.
Consider `O=c1oc2cc(O)cc(O)c2c2ccccc12` [Compound D715-2441, 1,3-Dihydroxy-6H-benzo[c]chromen-6-one], for which the “PB2 cap and m7 GTP binding” value in series [3] is “prevent PB2 cap and m7 GTP binding in a dose-dependent manner”.
In the case of `Cc1nc([O-])c2c(n1)n(CC(=O)c1ccc(O)c(C(N)=O)c1)c[n+]2C` [i], the IC50 in the series with H3N2 influenza virus is 7.5 µM.
With `Cc1nc([O-])c2c(n1)n(CC(=O)c1ccc(O)c(C(=O)O)c1)c[n+]2C` [h], the concentration for half-maximal inhibition (IC50) in the series with H3N2 influenza virus was 0.6 µM.
`CCC(CC)O[C@@H]1C=C(C(=O)O)C[C@H](N)[C@H]1NC(C)=O` [OC, Oseltamivir carboxylate, reference compound]: the half-maximal inhibitory concentration (IC50) amounted to 0.01 µM in the series with HK/68 (H3N2) and 0.95 µM in series [1]. For the same molecule, in “in vitro”, the CC50 at 72 h is more than 100 µM.
Regarding `CCCCOc1ccc(-c2csc(Nc3ccc(CCC(=O)O)cc3)n2)cc1Cl` [Str1916], the IC50 was determined as 17 ± 7.94 µM in the series with HK/68 (H3N2) and 4.82 ± 3.03 µM in series [1]. Besides, the CC50 at 72 h in the series “in vitro” is more than 100 µM.
In the case of `O=C(O)c1cc2ccccc2c(Cc2c(O)c(C(=O)O)cc3ccccc23)c1O` [Str3107], the half-maximal inhibitory concentration (IC50) came to 45.7 ± 3.01 µM in the series on HK/68 (H3N2) and 18.2 ± 4.96 µM in series [1]. Further, the CC50 in the series “in vitro” was more than 100 µM.
